“Also recorded” adds a separate entry of the source. Where two headings read alike, the source gives them in different places.
Key:
[1] = system: QR (quinone reductase); assay: Induction of QR in mouse tissues after gavage; type: in vivo, mouse (female CD-1); settings: for Ratio of specific activities (treated/control), QR, Forestomach / Ratio of specific activities (treated/control), QR, Glandular stomach / Ratio of specific activities (treated/control), QR, Liver / Ratio of specific activities (treated/control), QR, Lung / Ratio of specific activities (treated/control), QR, Proximal small intestine: gavage, 5 days
Procedure: (§1) The compounds were administered to 6week-old female CD1 mice (4 or 5 mice
(§2) per group) by gavage in indicated single daily doses in 0.1 ml of Emulpho
(§3) EL 620P (GAF. Linden, NJ) for 5 days. Cytosols were prepared from the
(§4) tissues 24 hr after the last treatment and assayed for enzyme activities
(§5) (glutathione Stransferase was measured with 1chloro-2,4-dinitrobenzene).
(§6) The specific activities (nmol · min^-1 · mg^-1
(§7) ± SEM) of organs of vehicletreated #control mice were as follows.
(§8) 54 ± 5.8: GST. 439 ± 34. Data are presented as mean ± SEM.

[2] = system: QR in cl mutant (which synthesizes inactive cytochrome P-450IA1); settings: data not shown
[3] = system: QR in BP^r cl mutant (defective in transport of the liganded Ah receptor to the nucleus); settings: data not shown
[4] = system: quinone reductase (QR) in Hepa 1c1c7 murine hepatoma cells; assay: Induction of QR (inducer potency, CD value) in Hepa 1c1c7 murine hepatoma cells; type: cell-based; settings: for EC (2-fold QR specific activity): Mus musculus, QR induction, Hepa 1c1c7 cells; for relative potency as inducers of QR: comparison in words, Table 1
Procedure: Assay of Inducer Potency. Inducer activity was measured in Hepa 1c1c7 murine hepatoma cells grown in 96-well microtiter plates (Prochaska and Santamaria, Anal. Biochem. 169:328-336 (1988); Prochaska et al., Proc. Natl. Acad. Sciences USA 89:2394-2398 (1992)). QR activity (based on the formation of the blue-brown reduced tetrazolium dye) was measured with an optical microtiter plate scanner in cell lysates prepared in one plate, and the cell density was determined in the second plate by staining with crystal violet. Quantitative information on specific activity of QR, the inducer potency, and the cytotoxicity of the extract or compound tested is obtained by computer analysis of the absorbances. One unit of inducer activity is defined as the amount that when added to a single microtiter well doubled the QR specific activity. The CD value is the concentration of a compound required to double the quinone reductase specific activity in Hepa 1c1c7 murine hepatoma cells.
Each of the analogs of sulforaphane was tested for the ability to induce QR in murine hepatoma cells by the assay described in Example 1.
Analogs were synthesized and tested in the hepatoma cell assay described in Example 1.

[5] = system: glutathione S-transferase (GST); assay: Induction of glutathione S-transferase (GST) in mouse tissues after gavage; type: in vivo, mouse (female CD-1); settings: for Ratio of specific activities (treated/control), GST, Forestomach / Ratio of specific activities (treated/control), GST, Glandular stomach / Ratio of specific activities (treated/control), GST, Liver / Ratio of specific activities (treated/control), GST, Lung / Ratio of specific activities (treated/control), GST, Proximal small intestine: gavage, 5 days
Procedure: as §1, §2, §3, §4, §5, §6, §7, §8

[6] = system: phase I and phase II enzymes in mutants of Hepa 1c1c7 cells; settings: phase II selective = monofunctional
[7] = system: phase I and phase II enzymes in mutants of Hepa 1c1c7 cells; settings: Prochaska et al. 1988; cited from earlier work
[8] = system: female CD-1 mice; assay: Toxicity in mice dosed by gavage; type: in vivo, mouse (female CD-1); settings: compared with sulforaphane and erucin
Text: The sulfone (erysolin) was more toxic, but even 5-μmol daily doses for 5 days elevated the specific activities of these enzymes in some tissues examined. We therefore conclude that sulforaphane and its analogues not only induce QR in Hepa 1c1c7 murine hepatoma cells but also induce both QR and glutathione transferase activities in a number of murine organs.

[9] = 15 μmol per mouse per day, lung
[10] = 5-μmol daily doses for 5 days, some tissues

SMILES: C[S+]([O-])CCCCN=C=S (racemic) [Sulforaphane]
- rise in QR activity in lung ([1]; 15 μmol daily for 5 days, lung): to a lesser degree
- Ratio of specific activities (treated/control), QR, Forestomach ([1]; 15 μmol per mouse per day, *P < 0.05): 1.70 ± 0.18
- Ratio of specific activities (treated/control), QR, Glandular stomach ([1]; 15 μmol per mouse per day): 2.35 ± 0.06
- Ratio of specific activities (treated/control), QR, Liver ([1]; 15 μmol per mouse per day): 2.45 ± 0.07
- Ratio of specific activities (treated/control), QR, Lung [1, 9]: 1.37 ± 0.14
- Ratio of specific activities (treated/control), QR, Proximal small intestine ([1]; 15 μmol per mouse per day): 2.34 ± 0.19
- induction of QR in mutant cells [2]: normal
- induction of QR in mutant cells [3]: normal
- EC (2-fold QR specific activity) ([4]; Hepa-1c1c7, Table 1, read-out: CD value): 0.4 to 0.8 µM
- relative potency as inducers of QR [4]: most potent monofunctional inducer that has been identified; also recorded: equipotent
- rise in glutathione transferase activity in lung ([5]; 15 μmol daily for 5 days, lung): to a lesser degree
- Ratio of specific activities (treated/control), GST, Forestomach ([5]; 15 μmol per mouse per day): 1.98 ± 0.08
- Ratio of specific activities (treated/control), GST, Glandular stomach ([5]; 15 μmol per mouse per day): 2.97
- Ratio of specific activities (treated/control), GST, Liver ([5]; 15 μmol per mouse per day): 1.86 ± 0.08
- Ratio of specific activities (treated/control), GST, Lung [5, 9]: 1.17
- Ratio of specific activities (treated/control), GST, Proximal small intestine ([5]; 15 μmol per mouse per day): 2.13
- inducer type [6]: monofunctional inducer

SMILES: S=C=NCc1ccccc1 [Benzylisothiocyanate]
- inducer type [7]: monofunctional inducer

SMILES: CS(=O)(=O)CCCCN=C=S [Erysolin]
- Ratio of specific activities (treated/control), QR, Forestomach ([1]; 5 μmol per mouse per day): 1.05 ± 0.21
- Ratio of specific activities (treated/control), QR, Glandular stomach ([1]; 5 μmol per mouse per day): 1.57 ± 0.08
- Ratio of specific activities (treated/control), QR, Liver ([1]; 5 μmol per mouse per day): 1.62 ± 0.09
- Ratio of specific activities (treated/control), QR, Lung ([1]; 5 μmol per mouse per day, lung): 1.00 ± 0.11
- Ratio of specific activities (treated/control), QR, Proximal small intestine ([1]; 5 μmol per mouse per day): 1.22 ± 0.20
- elevation of QR specific activity [1, 10]: elevated
- EC (2-fold QR specific activity) ([4]; Hepa-1c1c7, read-out: CD value, Table 1): 0.82 µM
- relative potency as inducers of QR [4]: equipotent
- activity as inducers compared with sulforaphane and sulforaphene ([4]; in cell culture): less active
- Ratio of specific activities (treated/control), GST, Forestomach ([5]; 5 μmol per mouse per day): 1.45 ± 0.15
- Ratio of specific activities (treated/control), GST, Glandular stomach ([5]; 5 μmol per mouse per day): 1.94
- Ratio of specific activities (treated/control), GST, Liver ([5]; 5 μmol per mouse per day): 1.08 ± 0.11
- Ratio of specific activities (treated/control), GST, Lung ([5]; 5 μmol per mouse per day, lung): 1.09
- Ratio of specific activities (treated/control), GST, Proximal small intestine ([5]; 5 μmol per mouse per day): 0.87
- elevation of glutathione transferase specific activity [5, 10]: elevated
- toxicity in mice [8]: more toxic

From patent USRE36784E, “Chemoprotective isothiocyanates” (The Johns Hopkins University, priority 1997, dated 2000)
